Reference: PMC10382584, “Macrocyclization of linear molecules by deep learning to facilitate macrocyclic drug candidates discovery” (Nature Communications, 2023)

Key:
Assay in all cases: biochemical
Parameters in all cases: DiscoveRx KINOMEscan competition binding, percent of DMSO control signal at 100 nM
Conditions in all cases: read-out: Fig. 4a / Percent Control / Compound 1; percent of DMSO control, competition binding
[1] = target: AAK1 (Homo sapiens, UniProt Q2M2I8)
[2] = target: ACVR2B (Homo sapiens, UniProt Q13705)
[3] = target: T1, ADCK3 (Homo sapiens, UniProt Q8NI60)
T1 construct: gene COQ8A

[4] = target: ANKK1 (Homo sapiens, UniProt Q8NFD2)
[5] = target: T2, CDC2L2 (Homo sapiens, UniProt Q9UQ88)
T2 construct: gene CDK11A

[6] = target: CHEK2 (Homo sapiens, UniProt O96017)
[7] = target: ERBB2 (Homo sapiens, UniProt P04626)
[8] = target: T3, GCN2(Kin.Dom.2,S808G) (Homo sapiens, UniProt Q9P2K8, S808G)
T3 construct: gene EIF2AK4; Kin.Dom.2

[9] = target: T4, IKK-epsilon (Homo sapiens, UniProt Q14164)
T4 construct: gene IKBKE

[10] = target: IRAK3 (Homo sapiens, UniProt Q9Y616)
[11] = target: MAPKAPK2 (Homo sapiens, UniProt P49137)
[12] = target: T5, MEK3 (Homo sapiens, UniProt P46734)
T5 construct: gene MAP2K3

[13] = target: T6, MLK1 (Homo sapiens, UniProt P80192)
T6 construct: gene MAP3K9

[14] = target: NEK3 (Homo sapiens, UniProt P51956)
[15] = target: PAK2 (Homo sapiens, UniProt Q13177)
[16] = target: PLK1 (Homo sapiens, UniProt P53350)
[17] = target: PRKG1 (Homo sapiens, UniProt Q13976)
[18] = target: ROCK2 (Homo sapiens, UniProt O75116)
[19] = target: STK36 (Homo sapiens, UniProt Q9NRP7)
[20] = target: TNK1 (Homo sapiens, UniProt Q13470)
[21] = target: TNK2 (Homo sapiens, UniProt Q07912)
[22] = target: T7, TRKB (Homo sapiens, UniProt Q16620)
T7 construct: gene NTRK2

[23] = target: T8, TYK2(JH2domain-pseudokinase) (Homo sapiens, UniProt P29597)
T8 construct: JH2domain-pseudokinase

[24] = target: T9, YANK3 (Homo sapiens, UniProt Q86UX6)
T9 construct: gene STK32C

[25] = target: T10, p38-gamma (Homo sapiens, UniProt P53778)
T10 construct: gene MAPK12
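Also: KINOMEscan kinase panel binding assay, signal normalized between DMSO as 100% and a positive control compound as 0%.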

T5 sequence (P46734 whole entry): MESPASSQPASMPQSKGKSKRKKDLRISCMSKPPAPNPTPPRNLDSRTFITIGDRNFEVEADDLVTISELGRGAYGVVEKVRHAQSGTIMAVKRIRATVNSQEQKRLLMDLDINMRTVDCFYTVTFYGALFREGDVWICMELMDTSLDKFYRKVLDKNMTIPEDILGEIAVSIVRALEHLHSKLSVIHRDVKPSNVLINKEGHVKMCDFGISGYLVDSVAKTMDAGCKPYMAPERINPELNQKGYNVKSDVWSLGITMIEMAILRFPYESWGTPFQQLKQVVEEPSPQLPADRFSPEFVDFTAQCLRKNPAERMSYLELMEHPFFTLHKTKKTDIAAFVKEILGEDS
ERBB2, sequence (P04626 whole entry): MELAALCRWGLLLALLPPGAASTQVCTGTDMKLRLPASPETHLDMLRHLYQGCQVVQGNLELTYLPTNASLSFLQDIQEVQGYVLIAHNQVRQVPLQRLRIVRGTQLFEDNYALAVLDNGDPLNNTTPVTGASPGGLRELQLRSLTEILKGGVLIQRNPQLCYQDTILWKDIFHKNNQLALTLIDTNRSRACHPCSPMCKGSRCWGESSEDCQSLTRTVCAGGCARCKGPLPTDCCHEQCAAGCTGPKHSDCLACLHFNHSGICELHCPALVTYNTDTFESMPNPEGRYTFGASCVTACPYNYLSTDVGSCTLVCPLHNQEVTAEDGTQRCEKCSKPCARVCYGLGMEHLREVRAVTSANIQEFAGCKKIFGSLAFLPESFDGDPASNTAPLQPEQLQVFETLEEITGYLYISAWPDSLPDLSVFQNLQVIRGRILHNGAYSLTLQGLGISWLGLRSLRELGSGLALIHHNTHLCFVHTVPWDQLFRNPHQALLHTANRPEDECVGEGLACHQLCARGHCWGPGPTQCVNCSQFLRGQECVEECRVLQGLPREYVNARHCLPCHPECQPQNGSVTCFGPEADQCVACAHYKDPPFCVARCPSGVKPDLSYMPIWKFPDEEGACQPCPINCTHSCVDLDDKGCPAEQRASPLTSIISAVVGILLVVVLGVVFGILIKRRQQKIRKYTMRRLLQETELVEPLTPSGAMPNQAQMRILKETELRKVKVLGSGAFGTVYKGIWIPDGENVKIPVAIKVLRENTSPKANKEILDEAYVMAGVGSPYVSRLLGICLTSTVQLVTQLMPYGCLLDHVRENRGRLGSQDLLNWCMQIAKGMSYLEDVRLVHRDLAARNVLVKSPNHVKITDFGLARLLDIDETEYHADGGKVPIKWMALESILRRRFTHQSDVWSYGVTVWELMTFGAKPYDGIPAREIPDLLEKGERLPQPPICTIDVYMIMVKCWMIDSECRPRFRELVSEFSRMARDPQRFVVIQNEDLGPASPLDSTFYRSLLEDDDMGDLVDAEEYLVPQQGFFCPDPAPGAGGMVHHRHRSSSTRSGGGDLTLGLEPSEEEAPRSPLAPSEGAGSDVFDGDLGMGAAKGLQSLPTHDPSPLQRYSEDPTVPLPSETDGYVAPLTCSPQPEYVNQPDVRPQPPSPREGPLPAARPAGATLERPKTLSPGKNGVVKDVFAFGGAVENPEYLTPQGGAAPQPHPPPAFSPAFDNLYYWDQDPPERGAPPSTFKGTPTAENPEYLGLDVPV
T6 sequence (P80192 whole entry): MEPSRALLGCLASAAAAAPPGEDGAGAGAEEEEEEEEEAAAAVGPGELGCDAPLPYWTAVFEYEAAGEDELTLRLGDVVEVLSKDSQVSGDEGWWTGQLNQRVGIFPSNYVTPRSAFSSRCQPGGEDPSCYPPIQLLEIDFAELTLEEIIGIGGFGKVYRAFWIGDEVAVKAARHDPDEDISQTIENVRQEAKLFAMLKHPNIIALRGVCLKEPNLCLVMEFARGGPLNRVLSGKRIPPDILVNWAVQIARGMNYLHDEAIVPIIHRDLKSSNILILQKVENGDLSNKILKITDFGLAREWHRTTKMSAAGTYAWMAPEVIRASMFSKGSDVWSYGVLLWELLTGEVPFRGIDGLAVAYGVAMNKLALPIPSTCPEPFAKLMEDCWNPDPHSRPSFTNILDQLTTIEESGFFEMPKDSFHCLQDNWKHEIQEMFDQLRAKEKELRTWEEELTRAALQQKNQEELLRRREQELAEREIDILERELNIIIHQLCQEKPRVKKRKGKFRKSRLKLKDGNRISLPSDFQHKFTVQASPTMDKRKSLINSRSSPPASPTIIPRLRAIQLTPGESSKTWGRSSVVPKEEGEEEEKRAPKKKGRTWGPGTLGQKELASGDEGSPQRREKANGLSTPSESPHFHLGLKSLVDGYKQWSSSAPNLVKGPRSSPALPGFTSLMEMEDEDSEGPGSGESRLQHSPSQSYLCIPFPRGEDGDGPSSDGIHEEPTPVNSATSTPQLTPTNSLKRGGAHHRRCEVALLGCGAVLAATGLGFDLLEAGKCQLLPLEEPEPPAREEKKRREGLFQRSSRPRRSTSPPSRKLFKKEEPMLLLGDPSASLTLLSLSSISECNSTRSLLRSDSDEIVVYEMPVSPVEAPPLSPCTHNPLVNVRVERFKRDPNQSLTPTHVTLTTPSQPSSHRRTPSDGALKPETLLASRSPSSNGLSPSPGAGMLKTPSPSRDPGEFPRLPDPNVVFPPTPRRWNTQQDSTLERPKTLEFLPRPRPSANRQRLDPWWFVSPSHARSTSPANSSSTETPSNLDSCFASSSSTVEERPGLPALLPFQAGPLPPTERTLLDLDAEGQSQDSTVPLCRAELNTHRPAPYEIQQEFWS
ACVR2B, sequence (Q13705 whole entry): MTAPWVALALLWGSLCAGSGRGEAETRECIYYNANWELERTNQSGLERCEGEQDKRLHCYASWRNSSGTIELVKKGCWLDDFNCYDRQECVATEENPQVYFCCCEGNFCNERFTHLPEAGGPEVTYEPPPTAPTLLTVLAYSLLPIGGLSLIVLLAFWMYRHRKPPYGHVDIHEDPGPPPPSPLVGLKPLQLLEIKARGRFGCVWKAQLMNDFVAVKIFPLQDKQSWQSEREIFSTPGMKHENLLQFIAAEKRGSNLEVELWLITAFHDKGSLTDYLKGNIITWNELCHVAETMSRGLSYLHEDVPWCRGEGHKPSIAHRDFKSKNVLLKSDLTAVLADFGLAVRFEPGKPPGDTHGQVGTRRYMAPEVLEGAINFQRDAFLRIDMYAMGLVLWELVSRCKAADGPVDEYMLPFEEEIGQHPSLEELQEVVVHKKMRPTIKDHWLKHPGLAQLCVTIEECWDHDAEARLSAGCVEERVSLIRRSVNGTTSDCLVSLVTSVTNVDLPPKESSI
T8 sequence (P29597 whole entry): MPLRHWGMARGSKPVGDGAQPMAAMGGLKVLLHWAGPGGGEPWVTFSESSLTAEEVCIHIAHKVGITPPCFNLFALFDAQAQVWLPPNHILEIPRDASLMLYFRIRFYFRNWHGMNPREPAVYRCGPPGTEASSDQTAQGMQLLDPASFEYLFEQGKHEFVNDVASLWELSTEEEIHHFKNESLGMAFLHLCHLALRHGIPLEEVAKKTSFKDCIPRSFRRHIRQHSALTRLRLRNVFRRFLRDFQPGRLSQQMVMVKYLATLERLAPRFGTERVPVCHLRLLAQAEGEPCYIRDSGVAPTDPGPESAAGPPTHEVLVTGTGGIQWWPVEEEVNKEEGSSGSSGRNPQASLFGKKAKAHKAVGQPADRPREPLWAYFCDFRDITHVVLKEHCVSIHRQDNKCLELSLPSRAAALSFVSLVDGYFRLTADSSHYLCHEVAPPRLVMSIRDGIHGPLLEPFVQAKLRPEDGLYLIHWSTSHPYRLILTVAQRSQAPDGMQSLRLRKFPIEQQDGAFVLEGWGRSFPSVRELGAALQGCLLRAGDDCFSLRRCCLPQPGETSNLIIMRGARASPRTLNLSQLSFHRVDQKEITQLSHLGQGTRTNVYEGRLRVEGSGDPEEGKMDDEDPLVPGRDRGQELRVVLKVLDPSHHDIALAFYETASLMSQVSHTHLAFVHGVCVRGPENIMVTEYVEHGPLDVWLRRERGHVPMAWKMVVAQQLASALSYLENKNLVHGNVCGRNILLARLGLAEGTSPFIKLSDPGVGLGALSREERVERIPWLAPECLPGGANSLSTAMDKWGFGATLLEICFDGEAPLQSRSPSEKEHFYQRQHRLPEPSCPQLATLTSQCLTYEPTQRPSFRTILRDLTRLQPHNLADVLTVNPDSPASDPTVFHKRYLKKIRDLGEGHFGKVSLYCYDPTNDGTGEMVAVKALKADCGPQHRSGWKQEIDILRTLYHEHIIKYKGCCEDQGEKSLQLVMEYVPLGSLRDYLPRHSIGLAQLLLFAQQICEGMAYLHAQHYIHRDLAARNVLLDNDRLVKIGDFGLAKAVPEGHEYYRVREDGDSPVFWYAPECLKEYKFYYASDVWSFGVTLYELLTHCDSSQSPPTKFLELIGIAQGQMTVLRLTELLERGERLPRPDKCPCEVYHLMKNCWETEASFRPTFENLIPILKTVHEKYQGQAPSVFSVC
T1 sequence (Q8NI60 whole entry): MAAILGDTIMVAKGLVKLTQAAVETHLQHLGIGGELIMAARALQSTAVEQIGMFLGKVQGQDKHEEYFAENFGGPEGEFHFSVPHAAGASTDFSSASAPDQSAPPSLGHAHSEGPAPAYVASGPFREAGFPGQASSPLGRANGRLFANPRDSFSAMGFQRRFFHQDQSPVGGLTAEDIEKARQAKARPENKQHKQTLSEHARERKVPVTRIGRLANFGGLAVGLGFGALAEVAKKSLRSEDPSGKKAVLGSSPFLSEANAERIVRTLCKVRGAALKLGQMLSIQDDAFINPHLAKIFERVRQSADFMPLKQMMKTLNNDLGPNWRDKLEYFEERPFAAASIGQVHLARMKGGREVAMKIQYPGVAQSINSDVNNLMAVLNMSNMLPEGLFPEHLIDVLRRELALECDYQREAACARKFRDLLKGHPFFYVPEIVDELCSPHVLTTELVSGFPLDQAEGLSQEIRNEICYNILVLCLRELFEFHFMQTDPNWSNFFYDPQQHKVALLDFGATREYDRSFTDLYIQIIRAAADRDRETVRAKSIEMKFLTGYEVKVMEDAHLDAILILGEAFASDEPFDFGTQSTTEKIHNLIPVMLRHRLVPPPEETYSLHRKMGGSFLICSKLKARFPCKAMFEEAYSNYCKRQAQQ

Cc1cnc2nc1Nc1cccc(c1)COCc1cc(ccc1OCCN1CCCC1)N2 [Compound 1]
remaining binding at 0.1 µM [1]: 81%
remaining binding at 0.1 µM [2]: 96%
remaining binding at 0.1 µM [3]: 96%
remaining binding at 0.1 µM [4]: 86%
remaining binding at 0.1 µM [5]: 94%
remaining binding at 0.1 µM [6]: 87%
remaining binding at 0.1 µM [7]: 96%
remaining binding at 0.1 µM [8]: 38%
remaining binding at 0.1 µM [9]: 100%
remaining binding at 0.1 µM [10]: 53%
remaining binding at 0.1 µM [11]: 100%
remaining binding at 0.1 µM [12]: 76%
remaining binding at 0.1 µM [13]: 100%
remaining binding at 0.1 µM [14]: 90%
remaining binding at 0.1 µM [15]: 100%
remaining binding at 0.1 µM [16]: 94%
remaining binding at 0.1 µM [17]: 100%
remaining binding at 0.1 µM [18]: 83%
remaining binding at 0.1 µM [19]: 97%
remaining binding at 0.1 µM [20]: 38%
remaining binding at 0.1 µM [21]: 86%
remaining binding at 0.1 µM [22]: 40%
remaining binding at 0.1 µM [23]: 64%
remaining binding at 0.1 µM [24]: 99%
remaining binding at 0.1 µM [25]: 100%
